Here are results for 90 compounds from a melting point compilation (Tetko et al.; mined from patent text by program, amines drawn as free bases though some values may be those of a salt).

The term melting point denotes the temperature, or range, at which the solid turns liquid.

For the compound `Cc1cnc(-c2ccc(CBr)cc2)nc1`, the melting point was 129 to 131 °C.
Take `O=C1C(=Cc2ccc(Br)cc2)CCc2cc(OCCc3c[nH]cn3)ccc21`: the melting point lay within 176 to 178 °C.
Regarding `CN1CCC2(C)c3cc(O)cc([N+](=O)[O-])c3N(C)C12` (stereo not given), the melting point lay in the range of 170 to 171 °C.
On to `O=C1NC(=O)C2(O1)C(=O)N(Cc1ccc(Cl)c(Cl)c1)c1c(F)cccc12` (stereo not given), for which the melting point fell in the range of 101 to 102 °C.
With `O=C(NC1CCC(O)CC1)C1CC1` (stereo not given), the melting point lay within 220 to 222 °C.
For `O=C1C(=Cc2ccco2)CCc2cc(OCCn3ccnc3)ccc21`, the melting point was in the range of 109 to 110 °C.
`CCOc1ccc(C2(O)CCN(CC(O)c3ccc(O)c(C)c3)CC2)cn1` (stereo not given) yielded a melting point of 189 °C.
Turning to `COc1ccc(F)c(F)c1C=NO`, the melting point lay within 199 to 201 °C.
`O=C(Cc1ccccc1Nc1c(Cl)cccc1Cl)OCc1ccncc1` gave a melting point of 121 to 123 °C.
For the compound `CNC(=O)C1Cc2c(n(C)c3ccc(OC)cc23)C1` (stereo not given), the melting point is 164 to 165 °C.
Compound `CC(C)N(O)C(=O)Nc1cccc(S(C)=O)c1` (stereo not given) returned a melting point of 135 to 136 °C.
`COc1ccc2c(c1)c(-c1cc3c(-c4c(C)noc4C)ccnc3[nH]1)cn2C`: the melting point lay within 254 to 255 °C.
Then `COc1cc2c3c(n(C)c(=O)c2cc1OC)-c1cc2c(cc1C3=CCCCCBr)OCO2`, with 196 to 197 °C; and `O=[N+]([O-])c1ccc(F)cc1OCc1ccccc1`, with 52 to 54 °C; and `COc1ccc(C(=O)NC2CCCNC(=O)C2)cc1OC` (stereo not given), with 190 to 191 °C.
As for `COc1cc(-c2nc(NC(=O)c3cc4ccccc4n3CCCCCC(=O)O)sc2CCC2CCCCC2)c(OC)cc1Cl`, the melting point was found to be 121 °C.
In turn, `CC(CN1CCN(CCc2ccc(C(=O)O)cc2)CC1)Oc1ccc(C(=O)O)cc1` (stereo not given) yielded a melting point of 270 to 271 °C.
Compound `O=C(O)c1cccc2c(=O)c3cc(I)ccc3[nH]c12` yielded a melting point of 355 to 357 °C.
`COc1ccc(-c2cc(CN3CCN(C)CC3)c(=O)n(Cc3ccc(F)c(F)c3)n2)cc1F`: the melting point was 135 to 136 °C.
As for `CC(C)Oc1cc(N2C(=O)C3COCCN3C2C(=O)O)c(F)cc1Cl` (stereo not given), the melting point lay in the range of 59 to 61 °C.
`COc1cc(C)nc(NC(=O)NS(=O)(=O)c2cccc3c2OC(C)(C)O3)n1` returned a melting point of 180 to 183 °C.
In turn, `O=C(NCc1ccc(Br)cc1)c1c(F)cccc1F` displayed a melting point of 142 °C.
As for `N=C(NS(=O)(=O)c1ccc(F)cc1)N1CC(c2ccccc2)C(c2ccc(Cl)cc2)=N1` (stereo not given), the melting point was in the range of 214 to 215 °C.
Compound `CCCCCCCCN=C1SC(=CC(=O)O)C(=O)N1CCCCCCCC` showed a melting point of 57 to 61 °C.
The compound `CCC(=O)N1C2CCC1CN(Cc1cc3ccccc3o1)C2` returned a melting point of 88 to 90 °C.
Consider `CC(C)(O)C1Cc2cc3ccc(=O)oc3cc2O1` (stereo not given), for which the melting point lay in the range of 186 to 187 °C.
In turn, `CC(C)(C)c1csc(-c2cc3cc(O)ccc3o2)n1` displayed a melting point of 179 to 180 °C.
In the case of `CN(C)c1cccc(OCC(=O)NCCO[N+](=O)[O-])c1`, the melting point is 62 to 63 °C.
The figure for `C#Cc1ccc(-c2nc(-c3ccccc3)nc(-c3ccc(C#C)cc3)n2)cc1` is 215 °C; for `CCN(CC)CCOc1ccc(Nc2ncc3c(n2)N(c2cccc(CCO)c2)C(=O)N(c2ccccc2Br)C3)cc1` it is 98 °C.
Take `CS(=O)(=O)c1nccn1CC(=O)Cl`: the melting point was in the range of 132 to 133 °C.
The figure for `CCn1cc2c(n1)c(=O)[nH]c1ccccc12` is above 250 °C; for `COc1cc(C=CC(=O)Nc2c(C)nc3c(C)cc(C)cc3c2-c2ccccc2Cl)cc(OC)c1OC(C)=O` it is 225 to 226 °C.
In turn, `CC(=O)OC1CC2CCC3C(CCC4(C)C3CC(N3CCN(C)CC3)C4OC(C)=O)C2(C)CC1N1CCCCC1` (stereo not given) had a melting point of 95 to 98 °C.
In the case of `CC(=O)OC1CSC(Oc2cccc(-c3ccc(Cl)nc3)c2)C(OC(C)=O)C1OC(C)=O` (stereo not given), the melting point worked out at 129 °C.
`Cn1nc(-c2cnc(N)nc2-c2ccc(F)c(F)c2)ccc1=O` gave a melting point of 231 °C.
On to `CCOC(=O)Cc1c(C)nn(-c2ccc(OC)cc2)c1C`, for which the melting point fell in the range of 71 to 72 °C.
`Cc1cccc(C)c1N(Cn1cnc(Cl)c1Cl)C(=O)CCl`: the melting point was 99 °C.
`N#CCOc1c(-c2ccccc2)c(=O)[nH]c2cc(Cl)ccc12` registered a melting point of 209 to 211 °C.
`COC(=O)C1=NNC(C)=C(C(=O)OC)C1c1ccc(OC)cc1` (stereo not given) showed a melting point of 154 °C.
Then `CC(=O)c1ccc2c(c1)CN(C(=O)C(F)(F)F)CC2`, with 80 °C; and `COC(=O)CCCCSCCCCCCCCCCCOS(=O)(=O)c1ccc(C)cc1`, with 54 °C; and `CC(C(N)=S)(c1ccccc1)c1ccccn1` (stereo not given), with 186 to 188 °C.
The compound `COc1ccc(C=C(CSC(C)=O)C(=O)NCCC(=O)OCc2ccccc2)cc1` returned a melting point of 96 °C.
`CC1(CC(O)(Cc2ccc(Cl)cc2Cl)c2cccnc2)OCCO1` (stereo not given) yielded a melting point of 136 to 137 °C.
For the compound `CC(C)C1N(CC(N)=O)C(=O)CN1C(=O)CCl` (stereo not given), the melting point stood at 163 °C.
`c1ccc(-c2nc3ccc(NCCCN4CCC(OC(c5ccccc5)c5ccccc5)CC4)nn3n2)cc1`: the melting point is 170 to 172 °C.
With `O=C(O)c1nn(-c2ccccc2)c2c1C(N1CCOCC1)c1ccccc1-2` (stereo not given), the melting point fell in the range of 244 to 245 °C.
In the case of `CCn1cc(Br)nc(N)c1=O`, the melting point is 227 to 230 °C.
In turn, `O=C(NCCCCOc1ccc(-n2ccnc2)cc1)c1ccc(Cl)cc1` gave a melting point of 138 to 139 °C.
In turn, `Cc1ccc(NC(=O)NCc2ccc3c(c2)CN(C2CCC(=O)NC2=O)C3=O)cc1C(F)(F)F` (stereo not given) showed a melting point of 273 to 275 °C.
Compound `CCOc1cc(Cc2cnc(N)nc2N)cc2c1OC(C)(C)C=C2C(C)(O)CC` (stereo not given) registered a melting point of 127 to 128 °C.
`NC(=O)C1CCN(C(=O)CNC(=O)CNC(=O)CN2CCCC2=O)CC1` displayed a melting point of 225 to 227 °C.
For the compound `O=C1CC2C(CC(OC(=O)c3ccccc3)C2C=CC(O)C2(F)CCCC2)O1` (stereo not given), the melting point is 73 to 74 °C.
With `CC(C)c1cc(Oc2c(Cl)cc(C(F)(F)F)cc2Cl)n[nH]1`, the melting point is 98 to 101 °C.
Then `CS(=O)(=O)c1c(CC(=O)O)n(Cc2ccc(Cl)cc2)c2ccc(F)cc12`, with 202 °C.
`COc1ccc(NC(=O)c2ccccc2NS(=O)(=O)c2ccc(C)cc2)cc1Cl` came in with a melting point of 181 to 182 °C.
`ClCCc1nc2c(ccc3ccccc32)o1` showed a melting point of 80 to 82 °C.
As to `COC(=O)C(C(=O)OC)c1cccc2c1NC(=O)C2=O`, the melting point fell in the range of 137 to 140 °C.
In the case of `O=S(=O)(Nc1ccc2oncc2c1)c1cc(Cl)ccc1Cl`, the melting point lay within 173 to 174 °C.
Then `Cc1ccc(Sc2nc(-c3ccc(Cl)cc3)c(CCC(=O)O)o2)cc1`, with 160 to 161 °C.
For `CC1(c2ccc(N)cc2)C(=O)c2c(Cl)cc(Cl)cc2N(Cc2ccccc2)C1=O` (stereo not given), the melting point is 209 to 210 °C.
The compound `CCNC(=N)NC(=O)Cc1ccccc1OC` registered a melting point of 127 to 128 °C.
As for `O=c1cc(-c2ccccc2)oc2cccc(F)c12`, the melting point is 144 to 145 °C.
Then `Cn1cc(-c2cccc(F)c2)c(=O)c(-c2cccc(C(F)(F)F)c2)c1`, with 94 to 96 °C; and `CC(F)C(C)(N)C(=O)O` (stereo not given), with 226 °C; and `O=C(O)CCCc1cc2nc(Cl)ccc2n1S(=O)(=O)c1cc(C(F)(F)F)cc(C(F)(F)F)c1`, with 155 to 164 °C.
For `O=C(O)CN1CCN(C(=O)c2cc(C(F)(F)F)cc(C(F)(F)F)c2)[C@H](Cc2c[nH]c3ccccc23)C1`, the melting point lay in the range of 152 to 156 °C.
With `CCN1CCN(c2ccc(Br)nc2)CC1`, the melting point lay within 30 to 31 °C.
`O=c1[nH]c2cc(Cl)cc(Cl)c2oc1=O` came in with a melting point of 312 °C.
The figure for `CCOC(=O)c1cccc(-c2ccc3c(c2)C(O)CCC3)c1` (stereo not given) is 88 to 100 °C; for `O=C(O)c1cn(-c2cccc(F)c2)c2cc(Cl)ccc2c1=O` it is 284 to 286 °C; for `C[C@@H](Nc1ncnc2[nH]c(-c3ccc(CN(CCO)CCO)cc3)cc12)c1ccccc1` it is 194 to 197 °C.
For `O=c1cc(O)c(=O)c2ccc(O)cc2[nH]1`, the melting point was above 350 °C.
Take `O=C(CCCCCNC(=O)[C@H](Cc1c[nH]c2ccccc12)NC(=O)Cc1ccc2ccccc2c1)NO`: the melting point lay in the range of 112 to 114 °C.
In turn, `CCCCC(=O)c1c(-c2ccc3cc(OCC(=O)O)ccc3c2)oc2ccc(Cl)cc12` showed a melting point of 158 to 160 °C.
Then `CC(=O)C1=CCC2C3CCC4CC5OC5CC4(C)C3C(=O)CC12C` (stereo not given), with 154 to 156 °C; and `O=C(O)C1CCC2C(=O)OC(=O)C2C1` (stereo not given), with 250 °C; and `CC(CC(Br)CO)C1CCC2C(O)CCCC12C` (stereo not given), with 153 to 154 °C.
With `O=C(NCCc1ccc(Cl)cc1)c1c(Cl)ccc2nc(N3CCC(C(=O)O)CC3)ccc12`, the melting point lay in the range of 231 to 234 °C.
Compound `CC(C)(CO)Nc1ccc2c(c1)C(=O)c1ccccc1C2=O` came in with a melting point of 218 to 220 °C.
As for `CC(C)(C)OC(=O)c1ccc(O)c(Br)c1`, the melting point is 106 to 108 °C.
`CCN(CCc1ccc(Nc2ncc3c(n2)-c2ccccc2C(c2cccc(Br)c2)C3)cc1)C(C)C` (stereo not given) gave a melting point of 67 to 69 °C.
Then `CN(c1ccccc1)c1ncccc1NC(=O)c1ccccc1F`, with 84 to 86 °C; and `O=S(=O)(/C=C/c1ccccc1)Nc1ccc(F)cc1`, with 83 to 85 °C.
As for `CCc1ccnc(C(=O)c2[nH]c3cc(Cl)ccc3c2CC(=O)O)c1F`, the melting point fell in the range of 193 to 194 °C.
Regarding `Cc1ccc(-c2ccc3c(c2)C=C(C(=O)Nc2ccc(CN(C)C4CCOCC4)cc2)CCC3)cc1`, the melting point fell in the range of 161 to 162 °C.
In turn, `Cc1ncc([N+](=O)[O-])n1CCN1C(=O)NC2(C1=O)C1CC3CC(C1)CC2C3` (stereo not given) displayed a melting point of 276 to 280 °C.
As to `O=c1[nH]c(CCCn2ccnc2)nc2ccc(Cl)cc12`, the melting point lay within 192 to 194 °C.
For `CCC(C(=O)N(C)C)n1ccc(-c2ccccc2Cl)n1` (stereo not given), the melting point was 38.5 to 40 °C.
